Source: ChEMBL document CHEMBL1135508, “Synthesis, SAR, and biological evaluation of oximino-piperidino-piperidine amides. 1. Orally bioavailable CCR5 receptor antagonists with potent anti-HIV activity” (J Med Chem, 2002)

Columns and labels:
U-87 MG = test: Concentration required to inhibit the entry of HIV-1 reporter virus (ADA) into U-87 cells by 50%; type: functional, cell-based, U-87MG ATCC
Rattus norvegicus = test: Area under curve value at 0-6 hr in rat pharmacokinetic screening after 10 mg/kg peroral dose; type: ADME, organism-based; parameters: time < 6 hr, dose 10 mg/kg, route oral; conditions: in vivo, po
[1] = biological target: T1, Muscarinic acetylcholine receptor M2 (Homo sapiens, UniProt P08172); test: Inhibitory activity against Muscarinic acetylcholine receptor M2
T1 sequence (P08172 whole entry): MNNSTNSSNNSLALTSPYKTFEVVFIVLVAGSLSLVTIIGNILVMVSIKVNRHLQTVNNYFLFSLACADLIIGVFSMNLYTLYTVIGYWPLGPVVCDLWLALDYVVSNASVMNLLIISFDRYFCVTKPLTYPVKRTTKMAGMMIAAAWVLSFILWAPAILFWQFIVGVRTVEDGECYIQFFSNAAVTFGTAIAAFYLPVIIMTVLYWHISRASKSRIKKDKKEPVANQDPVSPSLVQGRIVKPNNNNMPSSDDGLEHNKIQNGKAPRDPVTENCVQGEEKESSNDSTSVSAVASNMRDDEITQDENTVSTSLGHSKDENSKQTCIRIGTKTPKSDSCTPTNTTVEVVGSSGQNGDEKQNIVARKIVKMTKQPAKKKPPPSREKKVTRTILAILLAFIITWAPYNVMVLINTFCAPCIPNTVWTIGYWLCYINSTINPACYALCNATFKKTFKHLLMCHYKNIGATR

[2] = Plasma clearance after IV administration at the dose 2/2 (IV/Po/mg/kg); type: ADME, organism-based; conditions: cercopithecidae, 2 mg/kg
[3] = Plasma clearance after IV administration at the dose 10/10 (IV/Po/mg/kg); type: ADME, organism-based; conditions: 10 mg/kg
[4] = Percent of Absorption after IV administration at the dose 10/10 (IV/Po/mg/kg); type: ADME, organism-based; conditions: in vivo, 10 mg/kg, read-out: Absorption
[5] = Percent of Absorption after IV administration at the dose 2/2 (IV/Po/mg/kg); type: ADME, organism-based; conditions: cercopithecidae, in vivo, 2 mg/kg, read-out: Absorption
[6] = T max after oral administration at the dose 2/2 (IV/Po/mg/kg); type: ADME, organism-based; conditions: cercopithecidae, in vivo, 2 mg/kg
[7] = Percent of bioavailability after oral administration at the dose 10/10 (IV/Po/mg/kg); type: ADME, organism-based; conditions: in vivo, 10 mg/kg, read-out: Bioavailabiility
[8] = T max after oral administration at the dose 10/10 (IV/Po/mg/kg); type: ADME, organism-based; conditions: in vivo, 10 mg/kg
[9] = Half life (t 1/2) after IV administration at the dose 2/2 (IV/Po/mg/kg); type: ADME, organism-based; conditions: cercopithecidae, in vivo, 2 mg/kg
[10] = Half life (t 1/2) after IV administration at the dose 10/10 (IV/Po/mg/kg); type: ADME, organism-based; conditions: in vivo, 10 mg/kg
[11] = Percent of bioavailability after oral administration at the dose 2/2 (IV/Po/mg/kg); type: ADME, organism-based; conditions: cercopithecidae, in vivo, 2 mg/kg, read-out: Bioavailabiility
[12] = C max after oral administration at the dose 2/2 (IV/Po/mg/kg); type: ADME, organism-based; conditions: cercopithecidae, in vivo, 2 mg/kg
[13] = C max after oral administration at the dose 10/10 (IV/Po/mg/kg); type: ADME, organism-based; conditions: in vivo, 10 mg/kg

Row | IC50 (U-87 MG; Homo sapiens, U-87 MG) [nM] | AUC (Rattus norvegicus) [ng·h/mL] | Structure (SMILES) | other results
1 | 0.9 | 210 | CCO/N=C(\c1ccc(Br)cc1)C1CCN(C2(C)CCN(C(=O)c3c(C)cc(O)nc3C)CC2)CC1 | 
2 | 1.7 | 1700 | Cc1cccc(C)c1C(=O)N1CCC(C)(N2CCC(/C(=N/OC(C)C)c3ccc(Br)cc3)CC2)CC1 | 
3 | 0.5 | 1300 | CO/N=C(\c1ccc(Br)cc1)C1CCN(C2(C)CCN(C(=O)c3c(C)cccc3N)CC2)CC1 | 
4 | 1.4 | 1700 | CCO/N=C(\c1ccc(Cl)cc1)C1CCN(C2(C)CCN(C(=O)c3c(C)cc[n+]([O-])c3C)CC2)CC1 | 
5 | 6.4 |  | CCO/N=C(\c1ccc(Br)cc1)C1CCN(C2(C)CCN(C(=O)c3c(C)cc(C)nc3O)CC2)CC1 | 
6 | 9.2 |  | CCO/N=C(/c1ccc(Br)cc1)C1CCN(C2(C)CCN(C(=O)c3c(C)cccc3C)CC2)CC1 | 
7 | 1 |  | Cc1cccc(C)c1C(=O)N1CCC(C)(N2CCC(Cc3ccc(C(F)(F)F)cc3)CC2)CC1 | 
8 | 4 | 3000 | CO/N=C(\c1ccc(Br)cc1)C1CCN(C2(C)CCN(C(=O)c3c(C)cccc3O)CC2)CC1 | 
9 | 1.2 | 1400 | CO/N=C(\c1ccc(Br)cc1)C1CCN(C2(C)CCN(C(=O)c3c(C)cccc3C)CC2)CC1 (stereo in doubt; 14c (Z)) | 
10 | 10 | 40 | Cc1cccc(C)c1C(=O)N1CCC(C)(N2CCC(Cc3ccc(Br)cc3)CC2)CC1 | Ki [1]: 1320 nM
11 | 0.2 | 2100 | CCO/N=C(\c1ccc(Br)cc1)C1CCN(C2(C)CCN(C(=O)c3c(C)ccnc3C)CC2)CC1 | 
12 | 0.6 | 620 | CO/N=C(\c1ccc(Br)cc1)C1CCN(C2(C)CCN(C(=O)c3c(N)cccc3Cl)CC2)CC1 | 
13 | 1.7 | 3200 | CCO/N=C(\c1ccc(Br)cc1)C1CCN(C2(C)CCN(C(=O)c3c(C)ccc[n+]3[O-])CC2)CC1 | 
14 | 5.1 | 3300 | CO/N=C(\c1ccc(OC(F)(F)F)cc1)C1CCN(C2(C)CCN(C(=O)c3c(C)cc[n+]([O-])c3C)CC2)CC1 | 
15 | 4.4 |  | CNC(=O)CO/N=C(\c1ccc(Br)cc1)C1CCN(C2(C)CCN(C(=O)c3c(C)cccc3C)CC2)CC1 | 
16 | 23 |  | Cc1cccc(C)c1C(=O)N1CCC(C)(N2CCC(Cc3ccc(Cl)cc3)CC2)CC1 | 
17 | 41 |  | Cc1cccc(C)c1C(=O)N1CCC(C)(N2CCC(Cc3cccc(Br)c3)CC2)CC1 | 
18 | 12 |  | Cc1cccc(C)c1C(=O)N1CCC(C)(N2CCC(C(=O)c3ccc(Br)cc3)CC2)CC1 | 
19 | 10 |  | Cc1cccc(C)c1C(=O)N1CCC(C)(N2CCC(/C(=N/O)c3ccc(Br)cc3)CC2)CC1 | 
20 | 1.1 | 350 | CO/N=C(\c1ccc(C(F)(F)F)cc1)C1CCN(C2(C)CCN(C(=O)c3c(C)cc[n+]([O-])c3C)CC2)CC1 | 
21 | 1 | 590 | C=C(c1ccc(Br)cc1)C1CCN(C2(C)CCN(C(=O)c3c(C)cccc3C)CC2)CC1 | 

Row | IC50 (U-87 MG; Homo sapiens, U-87 MG) [nM] | AUC (Rattus norvegicus) [ng·h/mL] | Structure (SMILES) | other results
22 | 1300 |  | Cc1cccc(C)c1C(=O)N1CCC(C)(N2CCC(Cc3ccccc3Br)CC2)CC1 | 
23 | 0.6 | 6500 | CCO/N=C(\c1ccc(Br)cc1)C1CCN(C2(C)CCN(C(=O)c3c(C)cc[n+]([O-])c3C)CC2)CC1 [ANCRIVIROC] | clearance [2]: 4.28 mL/min/kg; clearance [3]: 12.8 mL/min/kg; Fa [4]: 57%; Fa [5]: 80%; Tmax [6]: 2 h; bioavailability [7]: 63%; Tmax [8]: 0.5 h; half-life [9]: 6 h; half-life [10]: 5.4 h; bioavailability [11]: 52%; Cmax [12]: 760 nM; Cmax [13]: 2500 nM
24 |  |  | COc1ccc(S(=O)(=O)c2ccc(CC3CCN(C4CCN(C(=O)c5ccc(F)c6ccccc56)CC4)CC3)cc2)cc1 | Ki [1]: 1.3 nM
25 | 5.6 | 2400 | CO/N=C(\c1ccc(Br)cc1)C1CCN(C2(C)CCN(C(=O)c3c(C)cc[n+]([O-])c3C)CC2)CC1 | 
26 | 9 |  | Cc1cccc(C)c1C(=O)N1CCC(C)(N2CCC(Cc3ccc(I)cc3)CC2)CC1 | 
27 | 76 |  | Cc1cccc(C)c1C(=O)N1CCC(C)(N2CCC(C(O)c3ccc(Br)cc3)CC2)CC1 (stereo unspecified) | 
28 | 1.4 |  | CCO/N=C(\c1ccc(Br)cc1)C1CCN(C2(C)CCN(C(=O)c3cccnc3C)CC2)CC1 | 
29 | 2.8 | 1200 | CO/N=C(/c1ccc(Br)cc1)C1CCN(C2(C)CCN(C(=O)c3c(C)cccc3C)CC2)CC1 | 
30 | 38 |  | Cc1ccc(CC2CCN(C3(C)CCN(C(=O)c4c(C)cccc4C)CC3)CC2)cc1 | 
31 | 0.5 | 1900 | CO/N=C(\c1ccc(Br)cc1)C1CCN(C2(C)CCN(C(=O)c3c(C)ccnc3C)CC2)CC1 | 
32 |  | 0 | CCO/N=C(\c1ccc(S(C)(=O)=O)cc1)C1CCN(C2(C)CCN(C(=O)c3c(C)cc[n+]([O-])c3C)CC2)CC1 | 
33 | 5.7 |  | Cc1cccc(C)c1C(=O)N1CCC(C)(N2CCC(/C(=N/OC(C)(C)C)c3ccc(Br)cc3)CC2)CC1 | 
34 | 2.1 | 2700 | CCO/N=C(\c1ccc(Br)cc1)C1CCN(C2(C)CCN(C(=O)c3c(F)cccc3C(F)(F)F)CC2)CC1 | 
35 | 26 |  | COc1ccc(CC2CCN(C3(C)CCN(C(=O)c4c(C)cccc4C)CC3)CC2)cc1 | 
36 | 1.1 | 1000 | CCO/N=C(\c1ccc(Br)cc1)C1CCN(C2(C)CCN(C(=O)c3c(C)cccc3C)CC2)CC1 | 
37 | 1.8 | 3000 | CCO/N=C(\c1ccc(OC(F)(F)F)cc1)C1CCN(C2(C)CCN(C(=O)c3c(C)cc[n+]([O-])c3C)CC2)CC1 | 
38 |  | 2100 | CO/N=C(\c1ccc(Br)cc1)C1CCN(C2(C)CCN(C(=O)c3c(C)cccc3C)CC2)CC1 (stereo in doubt) | IC50 (U-87 MG; u-87mg atcc): 1.4 nM
39 | 7 |  | Cc1cccc(C)c1C(=O)N1CCC(C)(N2CCC(Cc3ccc(S(C)(=O)=O)cc3)CC2)CC1 | 
40 | 1.3 | 2200 | CCO/N=C(\c1ccc(C(F)(F)F)cc1)C1CCN(C2(C)CCN(C(=O)c3c(C)cc[n+]([O-])c3C)CC2)CC1 | 
41 | 5 |  | Cc1cccc(C)c1C(=O)N1CCC(C)(N2CCC(Cc3ccc(OC(F)(F)F)cc3)CC2)CC1 | 
